From patent US11639360B2, “Oxazine compound and application thereof” (DALIAN UNIVERSITY OF TECHNOLOGY, priority 2018, dated 2023)

Key:
[1] = Self-assembled nano drug-delivery system, scanning electron microscope; assay type: physicochemical; settings: self-assembled in PBS or ultrapure water
Procedure: The compound F-1 synthesized in Embodiment 1 was used, and a proper amount of F-1-DMSO solution was added into a phosphate buffer (PBS) or ultrapure water as required. After shaking the mixture evenly, the compound F-1 could be self-assembled in the PBS or ultrapure water to form a nanoparticle system. It can be seen from FIG. 14 that the nanoparticles formed by the self-assembly of the compound F-1 in the nano-system are about 200 nanometers in size, regular in shape and uniform in size, and have excellent dispersion properties.

[2] = test system: MCF-7 (human breast cancer cell); assay: In vitro cell anti-cancer test under illumination (MTT); assay type: cell-based; settings: MTT cell survival rate; for killing effect on the cells under illumination: MCF-7, 30 minutes incubation, red light 660 nanometers; for killing effect on the cells without illumination: MCF-7, no illumination
Procedure: MCF-7 (human breast cancer cell) was planted in 96-well culture plates at a density of 5000 cells per well and cultured in a cell incubator for 24 hours (37° C., 5% CO2). The compound F-1 synthesized in Embodiment 1 was used, and F-1-DMSO solution was added into DMEM containing 10% fetal calf serum to prepare solutions with different concentrations, and the prepared solutions were added to the 96-well culture plates and placed in a cell incubator to incubate for 30 minutes, and then irradiated for a certain period by red light with a wavelength of 660 nanometers. After irradiation, 96 empty plates were placed in a cell incubator and continuously incubated for 12 hours. Then, 100 μl of culture medium containing 5 mg/ml MTT was added to each well, and incubated in a cell incubator for 4 hours. The culture solutions in the well of the plates were removed, 100 µl of DMSO was added to each well to fully dissolve MTT oxidation products, and then the absorbance of each well at 570 nanometers and 630 nanometers were measured with a microplate reader, and a cell survival rate was calculated.
MCF-7 (human breast cancer cell) was planted in 96-well culture plates at a density of 5000 cells per well and cultured in a cell incubator for 24 hours (37° C., 5% CO2). The compound F-2 synthesized in Embodiment 6 was used, and F-2-DMSO solution was added into DMEM containing 10% fetal calf serum to prepare solutions with different concentrations, and the prepared solutions were added to the 96-well culture plates and placed in the cell incubator to incubate for 30 minutes, and then irradiated for a certain period by red light with a wavelength of 660 nanometers. After irradiation, 96 empty plates were placed in a cell incubator and continuously incubated for 12 hours. Then, 100 μl of culture medium containing 5 mg/ml MTT was added to each well, and incubated in a cell incubator for 4 hours. The culture solutions in the well of the plates were removed, 100 µl of DMSO was added to each well to fully dissolve MTT oxidation products, and then the absorbance of each well at 570 nanometers and 630 nanometers were measured with a microplate reader, and a cell survival rate was calculated.
MCF-7 (human breast cancer cell) was planted in 96-well culture plates at a density of 5000 cells per well and cultured in a cell incubator for 24 hours (37° C., 5% CO2). The compound F-3 synthesized in Embodiment 11 was used, and […] was added into DMEM containing 10% fetal calf serum to prepare solutions with different concentrations, and the prepared solutions were added to the 96-well culture plates and placed in the cell incubator to incubate for 30 minutes, and then irradiated for a certain period by red light with a wavelength of 660 nanometers. After irradiation, 96 empty plates were placed in a cell incubator and continuously incubated for 12 hours. Then, 100 μl of culture medium containing 5 mg/ml MTT was added to each well, and incubated in a cell incubator for 4 hours. The culture solutions in the well of the plates were removed, 100 μl of DMSO was added to each well to fully dissolve MTT oxidation products, and then the absorbance of each well at 570 nanometers and 630 nanometers were measured with a microplate reader, and a cell survival rate was calculated.

[3] = Spectral test experiment (UV-vis spectrophotometer and fluorescence spectrometer); assay type: physicochemical; settings: in dichloromethane
Procedure: The compound F-1 synthesized in Embodiment 1 was used, and F-1-DMSO solution was added into dichloromethane and mixed evenly. Spectral properties of the compound F-1 were tested by a UV-vis spectrophotometer and a fluorescence spectrometer. The results are shown in FIG. 2, wherein the F-1 molecules have the maximum absorption and the maximum emission at 680 nanometers and 700 nanometers in the dichloromethane respectively.
The compound F-2 synthesized in Embodiment 6 was used, and F-2-DMSO solution was added into dichloromethane and mixed evenly. Spectral properties of the […] were tested by a UV-vis spectrophotometer and a fluorescence spectrometer. The results are shown in FIG. 6, wherein the F-2 molecules have the maximum absorption and the maximum emission at 686 nanometers and 712 nanometers in the dichloromethane are respectively.
The compound F-3 synthesized in Embodiment 11 was used, and F-3-DMSO solution was added into dichloromethane and mixed evenly. Spectral properties of the […] were tested by a UV-vis spectrophotometer and a fluorescence spectrometer. The results are shown in FIG. 10, wherein the F-3 molecules have the maximum absorption and the maximum emission at 697 nanometers and 740 nanometers in the dichloromethane.

Compound | size of nanoparticles formed by self-assembly [1] | killing effect on the cells under illumination [2] | killing effect on the cells without illumination [2] | maximum absorption [3] [nanometers] | maximum emission [3] [nanometers]
CC/N=c1/cc2sc3c4c5c(cc3nc-2c2ccccc12)CCCN5CCC4 [Compound F-1] | about 200 nanometers | obvious killing effect on the cells | very small killing effect on the cells without illumination, and has almost no toxicity | 680 | 700
CC/N=c1/cc2[se]c3c4c5c(cc3nc-2c2ccccc12)CCCN5CCC4 [Compound F-2] |  | obvious killing effect on the cells at low energy density of illumination | very small killing effect on the cells without illumination, and has almost no toxicity | 686 | 712
CC/N=c1/cc2[te]c3c4c5c(cc3nc-2c2ccccc12)CCCN5CCC4 [Compound F-3] |  | obvious killing effect on the cells at low energy density of illumination | a certain killing effect on the cells without illumination | 697 | 740
